Reference: patent publication US5254731A, “Substituted 3,4-dihydronaphthalenes, pharmaceutical compositions containing them, and preparation processes” (Gruenenthal GmbH, priority 1991, dated 1993)

Key:
[1] = test system: bronchoconstriction elicited by ovalbumin; assay: anti-asthmatic effect: ovalbumin-elicited bronchoconstriction in anesthetized, passively sensitized guinea pigs; format: in vivo, guinea pig; conditions: Cavia porcellus, 1 h; oral, 60 minutes before ovalbumin 0.2 mg/kg i.v.; read-out: ED40 (40% average inhibition of the bronchoconstriction elicited by ovalbumin)
Procedure: The anti-asthmatic effect of compounds according to the invention was tested in anesthetized and ventilated guinea pigs. To induce an asthmatic reaction, the animals were passively sensitized by a single intraperitoneal injection of anti-ovalbumin serum. After 48 hours the asthmatic reaction was elicited by intravenous challenge with 0.2 mg/kg of ovalbumin. The immediately resulting bronchoconstriction was measured as an increase in intratracheal pressure. Effects caused by histamine, serotonin and sympathic counterreaction were eliminated by intravenous pretreatment with 2.15 mg/kg of mepyramine, 46.4 mg/kg of propranolol, 4.64 mg/kg of atropine and 1 mg/kg of methysergide, all administered 5 minutes before challenge. Substituted 3,4-dihydronaphthalenes were orally administered 60 minutes before the administration of ovalbumin.

[2] = test system: endotoxin/galactosamine-induced hepatitis; assay: endotoxin/galactosamine-induced hepatitis in mice (septic shock model); format: in vivo, mouse; conditions: for Inhibition of increase of the enzymatic activity of GPT / Inhibition of increase of the enzymatic activity of SDH: i.p., 10 mg/kg for each of five administrations, serum, 8 hours after endotoxin; for shock mortality: endotoxin/galactosamine-induced hepatitis model
Procedure: To evaluate the effects of compounds according to the invention on septic shock, endotoxin/galactosamine-induced hepatitis in mice was used as test model. […] Intraperitoneal administration of compounds of formula I 30 minutes before, simultaneously with, and 2, 4 and 6 hours after administration of the endotoxin inhibits the hepatitis-induced increase of the activities of these enzymes in the serum. On administration of compounds of formula I in doses of 10 mg/kg for each of the five administrations, the following percentage inhibitions of the increase of the enzymatic activities of GPT and SDH were achieved (the increase of enzymatic activities in control animals who had been treated five times with a solution containing 1% by weight of sodium carboxymethylcellulose was set at 100%): […]

[3] = comparative compounds of formula A, aforementioned test model
[4] = comparative compound, aforementioned test model

| SMILES | ED40 [1] [mg/kg] | Inhibition of increase of the enzymatic activity of GPT [2] [%] | Inhibition of increase of the enzymatic activity of SDH [2] [%] | further results |
| --- | --- | --- | --- | --- |
| CC(=O)N(O)CC1=Cc2ccc(OC3CCCC3)cc2CC1 [Example 6a, N-[(6-cyclopentyloxy 3,4-dihydronaphth 2 yl)methyl]acetohydroxamic acid] | 275 | – | – | – |
| COc1ccc2c(c1)CCC(CN(O)C(N)=O)=C2 [Example 3, N-hydroxy-N-[(6-methoxy-3,4-dihydronaphth-2-yl)methyl]urea] | 33.5 | 78 | 57 | – |
| CC(=O)N(O)CC1=Cc2ccc(OCc3ccccc3)cc2CC1 [Example A2, reference compound] | – | – | – | inhibition of GPT [2, 3]: 16%; inhibition of SDH [2, 3]: 32%; shock mortality [2]: no detectable influence on shock mortality |
| NC(=O)N(O)CC1=Cc2ccc(OCc3ccccc3)cc2CC1 [Example A1, reference compound] | – | – | – | inhibition of GPT (in words) [2, 4]: did not cause either an inhibition of GPT; inhibition of SDH (in words) [2, 4]: did not cause either an inhibition of GPT and SDH; shock mortality [2]: did not cause either an inhibition of GPT and SDH or a decrease in the shock mortality |
| CC(C)Oc1ccc2c(c1)CCC(CN(O)C(N)=O)=C2 [Example 6e, N-hydroxy-N-[(6-isopropoxy-3,4-dihydronaphth-2-yl)methyl]urea] | 368 | – | – | – |
| COc1ccc2c(c1)CCC(C(C)N(O)C(C)=O)=C2 (stereo not drawn) [Example 2, N-[1-(6-methoxy-3,4-dihydronaphth-2-yl)ethyl]acetohydroxamic acid] | – | 56 | 69 | – |
| COc1ccc2c(c1)CCC(CN(O)C(C)=O)=C2 [Example 1, N-[(6-methoxy-3,4-dihydronaphth-2-yl)methyl]acetohydroxamic acid] | – | 54 | 41 | – |
